Assay results published in patent US20130217721A1, “COMPOSITIONS AND METHODS FOR DETECTION AND TREATMENT OF B-RAF INHIBITOR-RESISTANT MELANOMAS” (The Regents of the University of California, priority 2010, published 2013).
Values joined by “and” are separate entries in the source; they are usually repeats but may differ in a detail not shown here. Equal entries are not always repeated. Where two headings read alike, the source gives them in different places.

Assays:
[1] = test system: Pt55 R short-term culture; test: Cell survival / proliferation assay (72 h); format: cell-based, human
Experimental: Cells were maintained in Dulbecco's modified Eagle medium (DMEM) with 10 or 20% fetal bovine serum and glutamine. shRNAs were sub-cloned into the lentiviral vector pLL3.7 and infections carried out with protamine sulphate. Stocks of PLX4032 (Plexxikon) and AZD6244 (commercially available) were made in DMSO. Cells were quantified using CellTiter-GLO Luminescence (Promega).
Cell proliferation experiments were performed in a 96-well format (five replicates), and baseline quantification performed at 24 h after cell seeding along with initiation of drug treatments (72 h). Stocks and dilutions of PLX4032 (Plexxikon), AZD6244 (Selleck Chemicals) and U0126 (Promega) were made in DMSO. siRNA pool (Dharmacon) transfections were carried out in 384-well format. TransIT transfection reagent (Mirus) was added to each well and incubated at 37° C. for 20 min. Subsequently, cells were reverse transfected, and the mixture was incubated for 51-61 h at 37° C. Cells were quantified using CellTiter 96 Aqueous One Solution (Promega) or CellTiter-GLO Luminescence (Promega) following the manufacturer's recommendations.

[2] = target: B-RAF(V600E) kinase (Homo sapiens, UniProt P15056, V600E); test: In vitro kinase assay of immunoprecipitated B-RAF; format: biochemical; settings: from resistant sub-lines and short-term cultures compared with parental cell lines; 1 μM PLX4032, 30 min at 30° C.
Excerpt: Cells were harvested and protein lysates prepared in a NP40-based buffer before subjected to immunoprecipitation (IP). […] The beads were subsequently pelleted and the supernatant resuspended in sample buffer for western blotting to detect p-MEK and total MEK.

[3] = test system: melanoma; test: PLX4032 clinical trial patients: best overall response and progression free survival (Table 2); format: in vivo, human; settings: individual PLX4032 clinical trial patient
[4] = target: p61 BRAF(V600E/R509H) (Homo sapiens, UniProt P15056, DEL169-380/R509H/V600E); test: ERK signaling in 293H cells expressing p61 BRAF(V600E/R509H); format: cell-based; settings: 2 μM PLX4032 for 1 hour
Excerpt: FIGS. 6A-6E. […] FIG. 6A. PCR analysis of BRAF in cDNA from parental (P) and C3 cells. Primers were designed at the N-terminus and C-terminus of BRAF. […] Abbreviations: CR1: Conserved Region 1, CR2: Conserved Region 2, CR3: Conserved Region 3, RBD: RAS-binding domain, CRD: Cystine-Rich Domain, AS: Activation Segment, KD: Kinase Domain. FIG. 6B. Full length wild-type BRAF and the 1.7 kb/61 kd splice variant of BRAF(V600E) were cloned into a pcDNA3.1 vector with a FLAG tag at the C-terminus and expressed in 293H cells. The effect of PLX4032 (2 μM for 1 hour) on ERK signaling in the presence of p61 BRAF(V600E) was analyzed by western blot for pMEK and pERK. FIG. 6C. To compare levels of dimerization, 293H cells co-expressing FLAG tagged and V5-tagged p61 BRAF(V600E), full length BRAF(V600E) and the corresponding dimerization-deficient mutants p61 BRAF(V600E/R509H) and BRAF(V600E/R509H) were lysed followed by immunoprecipitation with FLAG antibody. Western blots with V5 or FLAG antibodies were performed as indicated. FIG. 6D. Comparison of MEK/ERK activation and sensitivity of ERK signaling to PLX4032 (2 μM for 1 hour) in 293H cells expressing either Flag-tagged BRAF(V600E) or the dimerization mutant Flag-tagged BRAF(V600E/R509H). FIG. 6E. […]

[5] = test system: melanoma tumors; test: Melanoma patients treated with vemurafenib (PLX4032): best response and PFS (Table 5); format: in vivo, human; settings: individual patient; patients 1-19 acquired resistance, 20-21 primary resistant
[6] = test system: pERK levels in M395 R; test: Western blot of pERK after acute vemurafenib titration; format: cell-based, human; settings: vemurafenib titration 1 h after a 24 h drug withdrawal
[7] = test system: M395 P over-expressing V600EB-RAF; test: Cell survival assay (72 h) with V600EB-RAF over-expression; format: cell-based, human
Experimental: FIGS. 9A-9C. ^V600EB-RAF levels modulate melanoma sensitivity to vemurafenib. […] Dashed line, 50% inhibition. […] FIG. 9C, Increasing (in M395 P) or decreasing (in M395 R) BRAF^V600E levels decreased or increased pERK sensitivity to PLX4032 (0, 0.1, 1, 10 μM) treatments for 1 h, respectively.
Cell culture, infections and drug treatments. Cells were maintained in DMEM with 10 or 20% fetal bovine serum and glutamine. shRNAs for B-RAF and C-RAF were sub-cloned into the lentiviral vector pLL3.7; pBabe B-RAF (V600E) was purchase (plasmid 17544, Addgene); viral supernatants generated by co-transfection with three packaging plasm ids into HEK293T cells; and infections carried out with protamine sulfate. Stocks and dilutions of PLX4032 (Plexxikon, Berkeley, Calif.) and AZD6244 (commercially available) were made in DMSO. Cells were quantified using CellTiter-GLO Luminescence (Promega) or crystal violet staining followed by NIH Image J quantification.

[8] = test system: MAPK signalling (p-MEK1/2 and p-ERK1/2); settings: PLX4032 0, 0.01, 0.1, 1 and 10 μM
Experimental: FIG. 1A, Parental and PLX4032-resistant sub-lines were treated with increasing PLX4032 concentration (0, 0.01, 0.1, 1 and 10 μM), and the effects on MAPK signalling were determined by immunoblotting for p-MEK1/2 and p-ERK1/2 levels. Total MEK1/2, ERK1/2 and tubulin levels, loading controls.
Western blots were probed with antibodies against p-MEK1/2 (S217/221), MEK1/2, p-ERK1/2 (T202N204), ERK1/2, PDGFRβ, and EGFR (Cell Signaling Technologies), and N-RAS (Santa Cruz Biotechnology), pan-RAS (Thermo Scientific) and tubulin (Sigma). p-RTK arrays were performed according to the manufacturer's recommendations (Human Phospho-RTK Array Kit, R&D Systems).
Cell lysates for western blotting were made in RIPA (Sigma) with protease inhibitor cocktail (Roche) and phosphatase inhibitor cocktails I and II (Santa Cruz Biotechnology). Western blots were probed with antibodies against p-MEK1/2 (S217/221), total MEK1/2, p-ERK1/2 (T202/Y204), total ERK1/2, PDGFRβ, and EGFR (all from Cell Signaling Technologies), B-RAF and N-RAS (Santa Cruz Biotechnology), pan-RAS (Thermo Scientific) and tubulin (Sigma). p-RTK arrays were performed according to the manufacturer's recommendations (Human Phospho-RTK Array Kit, R&D Systems).

[9] = test system: V600EB-RAF-positive melanomas; settings: patients with V600EB-RAF-positive melanomas; cited from earlier work
[10] = test system: M229, M238 and M249 parental cell lines; settings: B-RAF(V600E)-positive parental cell lines, in vitro and in vivo; cited from earlier work
[11] = test system: ERK signaling (pMEK, pERK); test: Western blot of ERK signaling (pMEK, pERK) in SKMEL-239 parental cells and resistant clones
Experimental: PLX4032 IC50 curves (at 5 days) for the SKMEL-239 parental cell line and five PLX4032-resistant clones. […] Western blot for components of the ERK and AKT signaling pathways in parental and resistant clones (2 μM PLX4032/24 hours). […] Dose-response of pMEK and pERK downregulation at 1 hour to increasing concentrations of PLX4032 in parental and two representative resistant clones (C3 and C5). […] Graphic representation of the chemiluminescent signal intensities from 5D and determination of IC50s for inhibition of MEK phosphorylation by PLX4032 in the parental and C3 and C5 clones.
Western blotting and receptor tyrosine kinase (RTK) arrays. […] The following antibodies were used: p217/p221-MEK (pMEK), p202/p204-ERK (pERK), MEK, ERK, (Cell Signaling), V5 tag (Invitrogen), BRAF, cyclin Flag tag, β-actin (Sigma). […] Membranes were exposed to chemiluminescent reagents and images captured using the ImageQuant LAS 4000 instrument (GE HealthCare).

B-RAF(V600E) kinase, sequence (P15056 whole entry V600E): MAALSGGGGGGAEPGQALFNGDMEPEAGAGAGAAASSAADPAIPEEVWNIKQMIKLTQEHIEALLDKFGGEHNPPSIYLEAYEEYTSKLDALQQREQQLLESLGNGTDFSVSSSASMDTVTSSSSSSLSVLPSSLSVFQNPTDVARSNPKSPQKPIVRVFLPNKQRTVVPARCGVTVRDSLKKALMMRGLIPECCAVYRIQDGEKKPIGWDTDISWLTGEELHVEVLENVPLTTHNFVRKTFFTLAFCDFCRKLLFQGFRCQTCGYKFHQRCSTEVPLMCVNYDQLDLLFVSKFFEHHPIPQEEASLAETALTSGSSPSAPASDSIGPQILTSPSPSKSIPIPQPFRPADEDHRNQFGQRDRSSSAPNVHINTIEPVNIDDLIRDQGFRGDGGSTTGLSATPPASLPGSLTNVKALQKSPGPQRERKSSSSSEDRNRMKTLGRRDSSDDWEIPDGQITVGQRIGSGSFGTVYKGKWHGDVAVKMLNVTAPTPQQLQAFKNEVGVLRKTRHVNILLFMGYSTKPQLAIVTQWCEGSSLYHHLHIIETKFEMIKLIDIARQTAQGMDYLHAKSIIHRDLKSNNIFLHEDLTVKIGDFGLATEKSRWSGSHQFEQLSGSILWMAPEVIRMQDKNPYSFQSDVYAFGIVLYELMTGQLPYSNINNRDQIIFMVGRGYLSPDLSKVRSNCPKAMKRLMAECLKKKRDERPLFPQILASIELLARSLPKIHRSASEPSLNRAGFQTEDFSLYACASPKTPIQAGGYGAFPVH
p61 BRAF(V600E/R509H), sequence (P15056 with tags, fused parts or gaps DEL169-380/R509H/V600E): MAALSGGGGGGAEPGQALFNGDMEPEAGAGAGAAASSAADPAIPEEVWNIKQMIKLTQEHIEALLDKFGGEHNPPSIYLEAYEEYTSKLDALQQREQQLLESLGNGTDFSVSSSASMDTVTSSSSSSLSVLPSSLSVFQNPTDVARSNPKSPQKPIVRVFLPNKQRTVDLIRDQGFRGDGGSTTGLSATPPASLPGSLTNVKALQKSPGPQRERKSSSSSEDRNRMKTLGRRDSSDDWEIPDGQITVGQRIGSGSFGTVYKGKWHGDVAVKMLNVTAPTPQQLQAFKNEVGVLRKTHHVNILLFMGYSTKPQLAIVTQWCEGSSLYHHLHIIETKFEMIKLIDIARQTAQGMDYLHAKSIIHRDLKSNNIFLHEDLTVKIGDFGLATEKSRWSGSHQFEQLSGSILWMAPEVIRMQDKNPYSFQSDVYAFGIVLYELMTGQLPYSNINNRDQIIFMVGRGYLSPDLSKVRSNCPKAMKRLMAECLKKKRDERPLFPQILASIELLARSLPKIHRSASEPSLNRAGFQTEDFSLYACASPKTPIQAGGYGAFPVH

## CCCS(=O)(=O)Nc1ccc(F)c(C(=O)c2c[nH]c3ncc(-c4ccc(Cl)cc4)cc23)c1F [PLX4032]
[1]
  growth resistance to B-RAF inhibitor: resistance
[2]
  sensitivity of immunoprecipitated B-RAF kinase activities: similarly sensitive
[3]
  Best overall response: 83% and 14% and 37% and 53% (2×) and 73% and 84% and 32% and 42% and 24% and 57% and 75%
  Progression free survival: 161 days and 113 days (2×) and 270 days and 106 days and 141 days and 149 days and 137 days and 126 days (2×) and 466 days and 84 days
[4]
  ERK signaling: inhibited
[5]
  Best Response: −72% (2×) and −20% and −70% (2×) and −22% and −53% (2×) and −31% (2×) and −60% and −47% and −43% and −25% and −74% and −24% and −37% and −100% and −42% and +8%
  PFS: 464 days and 304 days and 104 days and 161 days and 137 days and 238 days and 212 days and 373 days and 148 days and 299 days and 107 days and 149 days and 126 days and 279 days and 118 days and 241 days and 168 days (2×) and 79 days and 50 days and 106 days
[6]
  pERK levels, sensitivity to acute V600EB-RAF inhibition: highly resistant
[7]
  vemurafenib resistance conferred by V600EB-RAF over-expression: highly saturable by micromolar concentrations
[8]; M229 R5
  PLX4032-induced decreases in p-MEK1/2 and p-ERK1/2: similarly sensitive
[8]; M238 R1
  PLX4032-induced decreases in p-MEK1/2 and p-ERK1/2: similarly sensitive
[8]; M249 R4
  PLX4032-induced MEK/ERK inhibition: strong resistance
[8]; all parental cells (M229, M238, M249)
  p-MEK1/2 and p-ERK1/2 levels: dose-dependent decreases
[9]
  anti-tumor response rate: 80%
[10]
  sensitivity to PLX4032-mediated growth inhibition: exquisitely sensitive
[11]; PLX4032-resistant SKMEL-239 clones
  sensitivity of ERK signaling to the drug: decreased sensitivity
[11]; SKMEL-239 C3 clone, 1 hour
  IC50 for pMEK inhibition relative to the parental cell line: more than 100 fold
[11]; SKMEL-239 C5 clone, 1 hour
  pMEK IC50 relative to the parental cell line: 4.5 fold
[11]; SKMEL-239 parental, 2 μM PLX4032
  inhibition of ERK signaling: effectively inhibits
